Literature values as cited in patent publication US10028927B2, “Topical pharmaceutical formulation” (Futura Medical Developments Limited, priority 2015, dated 2018).
Where a name gives a salt, the structure may show the parent alone.

Columns and labels:
[1] = saturated systems in polyethylene glycol and propylene glycol
[2] = in vivo

Q: With `O=C(O)Cc1ccccc1Nc1c(Cl)cccc1Cl` [diclofenac acid] as the molecule, how does the “saturated solubility in polyethylene glycol” value (polyethylene glycol) read?
A: Its value is 11.18 % w/w.

Q: What about the “saturated solubilities in propanol or iso-propanol” value (propanol or iso-propanol) of the same molecule?
A: Its value is 3-4%.

Q: And the “saturated solubility in pure ethanol” value (pure ethanol)?
A: Its value is 5 % w/w.

Q: And the “diclofenac flux, polyethylene glycol versus propylene glycol systems” value [1]?
A: Its value is “no significant difference”.

Q: With `O=C(O)Cc1ccccc1Nc1c(Cl)cccc1Cl` [diclofenac] as the molecule, how does the “systemic clearance compared with other drugs” value [2] read?
A: Its value is “more rapid systemic clearance compared with other drugs”.

Q: Which “saturated solubility in propylene glycol” value (propylene glycol) does the source give for `O=C(O)Cc1ccccc1Nc1c(Cl)cccc1Cl` [sodium salt of diclofenac acid, diclofenac sodium] here?
A: The value was “approximately 50 % w/w”.
